# From patent US6538014B1, “Process for the aggrochemical treatment of rangelands” (Bayer CropScience, Inc., priority 1992, dated 2003)
# Tests used:
# Format in all cases: in vivo
# Melanoplus sanguinipes = experiment: Caged grassland treatment, mortality of grasshoppers; conditions: for Effectiveness (%) against the grasshopper Melanoplus Sanquinipes, Persistence of Action 7 DAT / Effectiveness (%) against the grasshopper Melanoplus Sanquinipes, Persistence of Action 15 DAT / Effectiveness (%) against the grasshopper Melanoplus Sanquinipes, Persistence of Action 28 DAT: infestation renewed 2 days before
# Method: A zone of grassland is treated under controlled conditions, using cages to limit the space of movement of the insects. This zone is infested at a rate of 40 grasshoppers (Melanoplus sanguinipes) per m^2. For experimental purposes, the infestation is renewed 2 days before each observation of the effectiveness of the products, without performing a new insecticide treatment. The results are observed by performing mortality measurements (=percentage of grasshoppers killed). A remarkable persistence of action is observed.
# Schistocerca gregaria = experiment: Grassland treatment, mortality of locusts; conditions: for Effectiveness (%) against the locust (Schistocerca gregaria), Persistence of action 7 DAT / Effectiveness (%) against the locust (Schistocerca gregaria), Persistence of action 14 DAT / Effectiveness (%) against the locust (Schistocerca gregaria), Persistence of action 18 DAT: infestation renewed 2 days before
# From the text: (§1) One treats a zone of grassland infested at a rate of 40 locusts (Schistocerca gregaria) per m^2. For experimental purposes, the infestation is renewed 2 days before each effectiveness measurement. The results are observed by performing mortality measurements (=percentage of locusts killed). A remarkable persistence of action is observed.
# Chortoicetes terminifera = experiment: Grassland treatment, mortality of locusts; conditions: for Effectiveness (%) against the locust Chortoicetes terminifera, Persistence of action 5 DAT / Effectiveness (%) against the locust Chortoicetes terminifera, Persistence of action 10 DAT / Effectiveness (%) against the locust Chortoicetes terminifera, Persistence of action 20 DAT / Effectiveness (%) against the locust Chortoicetes terminifera, Persistence of action 30 DAT: infestation renewed 2 days before
# Method: as §1, with “A” for “One treats a”, “(Chortoicetes terminifera)” for “(Schistocerca gregaria)”, “m2 is treated, and” for “m^2. For experimental purposes,”
structure (smiles),measurement,setting,value
"N#Cc1nn(-c2c(Cl)cc(C(F)(F)F)cc2Cl)c(N)c1[S+]([O-])C(F)(F)F (centres unmarked) [Product A, 1-[2,6-dichloro-4-CF3-phenyl)-3-cyano-4-CF3SO-5-NH2-pyrazole]","Effectiveness (%) against the grasshopper Melanoplus Sanquinipes, Immediate Action 1 DAT",Melanoplus sanguinipes; 6.2 g Product A per hectare,87%
same,"Effectiveness (%) against the grasshopper Melanoplus Sanquinipes, Persistence of Action 7 DAT",Melanoplus sanguinipes; 6.2 g Product A per hectare,98%
same,"Effectiveness (%) against the grasshopper Melanoplus Sanquinipes, Persistence of Action 15 DAT",Melanoplus sanguinipes; 6.2 g Product A per hectare,93%
same,"Effectiveness (%) against the grasshopper Melanoplus Sanquinipes, Persistence of Action 28 DAT",Melanoplus sanguinipes; 6.2 g Product A per hectare,38%
same,"Effectiveness (%) against the grasshopper Melanoplus Sanquinipes, Immediate Action 1 DAT",Melanoplus sanguinipes; 12.5 g Product A per hectare,93%
same,"Effectiveness (%) against the grasshopper Melanoplus Sanquinipes, Persistence of Action 7 DAT",Melanoplus sanguinipes; 12.5 g Product A per hectare,100%
same,"Effectiveness (%) against the grasshopper Melanoplus Sanquinipes, Persistence of Action 15 DAT",Melanoplus sanguinipes; 12.5 g Product A per hectare,100%
same,"Effectiveness (%) against the grasshopper Melanoplus Sanquinipes, Persistence of Action 28 DAT",Melanoplus sanguinipes; 12.5 g Product A per hectare,69%
same,"Effectiveness (%) against the grasshopper Melanoplus Sanquinipes, Immediate Action 1 DAT",Melanoplus sanguinipes; 25 g Product A per hectare,98%
same,"Effectiveness (%) against the grasshopper Melanoplus Sanquinipes, Persistence of Action 7 DAT",Melanoplus sanguinipes; 25 g Product A per hectare,100%
same,"Effectiveness (%) against the grasshopper Melanoplus Sanquinipes, Persistence of Action 15 DAT",Melanoplus sanguinipes; 25 g Product A per hectare,100%
same,"Effectiveness (%) against the grasshopper Melanoplus Sanquinipes, Persistence of Action 28 DAT",Melanoplus sanguinipes; 25 g Product A per hectare,93%
same,"Effectiveness (%) against the locust (Schistocerca gregaria), Immediate Action 1 DAT",Schistocerca gregaria; 2.5 g product A per hectare,58%
same,"Effectiveness (%) against the locust (Schistocerca gregaria), Immediate Action 2 DAT",Schistocerca gregaria; 2.5 g product A per hectare,72%
same,"Effectiveness (%) against the locust (Schistocerca gregaria), Persistence of action 7 DAT",Schistocerca gregaria; 2.5 g product A per hectare,88%
same,"Effectiveness (%) against the locust (Schistocerca gregaria), Persistence of action 14 DAT",Schistocerca gregaria; 2.5 g product A per hectare,72%
same,"Effectiveness (%) against the locust (Schistocerca gregaria), Persistence of action 18 DAT",Schistocerca gregaria; 2.5 g product A per hectare,56%
same,"Effectiveness (%) against the locust (Schistocerca gregaria), Immediate Action 1 DAT",Schistocerca gregaria; 5 g product A per hectare,82%
same,"Effectiveness (%) against the locust (Schistocerca gregaria), Immediate Action 2 DAT",Schistocerca gregaria; 5 g product A per hectare,93%
same,"Effectiveness (%) against the locust (Schistocerca gregaria), Persistence of action 7 DAT",Schistocerca gregaria; 5 g product A per hectare,100%
same,"Effectiveness (%) against the locust (Schistocerca gregaria), Persistence of action 14 DAT",Schistocerca gregaria; 5 g product A per hectare,93%
same,"Effectiveness (%) against the locust (Schistocerca gregaria), Persistence of action 18 DAT",Schistocerca gregaria; 5 g product A per hectare,89%
same,"Effectiveness (%) against the locust (Schistocerca gregaria), Immediate Action 1 DAT",Schistocerca gregaria; 10 g product A per hectare,96%
same,"Effectiveness (%) against the locust (Schistocerca gregaria), Immediate Action 2 DAT",Schistocerca gregaria; 10 g product A per hectare,100%
same,"Effectiveness (%) against the locust (Schistocerca gregaria), Persistence of action 7 DAT",Schistocerca gregaria; 10 g product A per hectare,100%
same,"Effectiveness (%) against the locust (Schistocerca gregaria), Persistence of action 14 DAT",Schistocerca gregaria; 10 g product A per hectare,98%
same,"Effectiveness (%) against the locust (Schistocerca gregaria), Persistence of action 18 DAT",Schistocerca gregaria; 10 g product A per hectare,92%
same,"Effectiveness (%) against the locust (Schistocerca gregaria), Immediate Action 1 DAT",Schistocerca gregaria; 20 g product A per hectare,100%
same,"Effectiveness (%) against the locust (Schistocerca gregaria), Immediate Action 2 DAT",Schistocerca gregaria; 20 g product A per hectare,100%
same,"Effectiveness (%) against the locust (Schistocerca gregaria), Persistence of action 7 DAT",Schistocerca gregaria; 20 g product A per hectare,100%
same,"Effectiveness (%) against the locust (Schistocerca gregaria), Persistence of action 14 DAT",Schistocerca gregaria; 20 g product A per hectare,100%
same,"Effectiveness (%) against the locust (Schistocerca gregaria), Persistence of action 18 DAT",Schistocerca gregaria; 20 g product A per hectare,98%
same,"Effectiveness (%) against the locust Chortoicetes terminifera, Immediate Action 1 DAT Adults",Chortoicetes terminifera; 3.1 g product A per hectare,58%
same,"Effectiveness (%) against the locust Chortoicetes terminifera, Immediate Action 1 DAT Nymphs",Chortoicetes terminifera; 3.1 g product A per hectare,70%
same,"Effectiveness (%) against the locust Chortoicetes terminifera, Persistence of action 5 DAT",Chortoicetes terminifera; 3.1 g product A per hectare,96%
same,"Effectiveness (%) against the locust Chortoicetes terminifera, Persistence of action 10 DAT",Chortoicetes terminifera; 3.1 g product A per hectare,90%
same,"Effectiveness (%) against the locust Chortoicetes terminifera, Persistence of action 20 DAT",Chortoicetes terminifera; 3.1 g product A per hectare,74%
same,"Effectiveness (%) against the locust Chortoicetes terminifera, Persistence of action 30 DAT",Chortoicetes terminifera; 3.1 g product A per hectare,55%
same,"Effectiveness (%) against the locust Chortoicetes terminifera, Immediate Action 1 DAT Adults",Chortoicetes terminifera; 6.25 g product A per hectare,93%
same,"Effectiveness (%) against the locust Chortoicetes terminifera, Immediate Action 1 DAT Nymphs",Chortoicetes terminifera; 6.25 g product A per hectare,100%
same,"Effectiveness (%) against the locust Chortoicetes terminifera, Persistence of action 5 DAT",Chortoicetes terminifera; 6.25 g product A per hectare,100%
same,"Effectiveness (%) against the locust Chortoicetes terminifera, Persistence of action 10 DAT",Chortoicetes terminifera; 6.25 g product A per hectare,98%
same,"Effectiveness (%) against the locust Chortoicetes terminifera, Persistence of action 20 DAT",Chortoicetes terminifera; 6.25 g product A per hectare,93%
same,"Effectiveness (%) against the locust Chortoicetes terminifera, Persistence of action 30 DAT",Chortoicetes terminifera; 6.25 g product A per hectare,80%
same,"Effectiveness (%) against the locust Chortoicetes terminifera, Immediate Action 1 DAT Adults",Chortoicetes terminifera; 12.5 g product A per hectare,100%
same,"Effectiveness (%) against the locust Chortoicetes terminifera, Immediate Action 1 DAT Nymphs",Chortoicetes terminifera; 12.5 g product A per hectare,100%
same,"Effectiveness (%) against the locust Chortoicetes terminifera, Persistence of action 5 DAT",Chortoicetes terminifera; 12.5 g product A per hectare,100%
same,"Effectiveness (%) against the locust Chortoicetes terminifera, Persistence of action 10 DAT",Chortoicetes terminifera; 12.5 g product A per hectare,100%
same,"Effectiveness (%) against the locust Chortoicetes terminifera, Persistence of action 20 DAT",Chortoicetes terminifera; 12.5 g product A per hectare,96%
same,"Effectiveness (%) against the locust Chortoicetes terminifera, Persistence of action 30 DAT",Chortoicetes terminifera; 12.5 g product A per hectare,82%
same,"Effectiveness (%) against the locust Chortoicetes terminifera, Immediate Action 1 DAT Adults",Chortoicetes terminifera; 25 g product A per hectare,100%
same,"Effectiveness (%) against the locust Chortoicetes terminifera, Immediate Action 1 DAT Nymphs",Chortoicetes terminifera; 25 g product A per hectare,100%
same,"Effectiveness (%) against the locust Chortoicetes terminifera, Persistence of action 5 DAT",Chortoicetes terminifera; 25 g product A per hectare,100%
same,"Effectiveness (%) against the locust Chortoicetes terminifera, Persistence of action 10 DAT",Chortoicetes terminifera; 25 g product A per hectare,100%
same,"Effectiveness (%) against the locust Chortoicetes terminifera, Persistence of action 20 DAT",Chortoicetes terminifera; 25 g product A per hectare,100%
same,"Effectiveness (%) against the locust Chortoicetes terminifera, Persistence of action 30 DAT",Chortoicetes terminifera; 25 g product A per hectare,96%
